Data as given in US20250026746A1, “ENHANCERS OF PARTICULATE GUANYLYL CYCLASE RECEPTOR A” (Mayo Foundation for Medical Education and Research, priority 2021, published 2025).
Counter-ions that a name gives are not always drawn.

What was measured:
human GC-A = target: T1, human GC-A (Homo sapiens, UniProt P16066); experiment: EC50 and Emax cGMP determination, HTRF, human GC-A overexpressing HEK293 cells; assay type: cell-based; details: for Emax: HEK293, HEK293 GC-A cells, read-out: EMax cGMP activities; for Emax / EMax cGMP activities: 100% = saturating ANP (10 nM), 0% = EC20 ANP; for EC50: EC20 ANP, read-out: EC50 cGMP activities
T1 construct: host or cells: HEK293
T1 sequence (P16066 33-1061): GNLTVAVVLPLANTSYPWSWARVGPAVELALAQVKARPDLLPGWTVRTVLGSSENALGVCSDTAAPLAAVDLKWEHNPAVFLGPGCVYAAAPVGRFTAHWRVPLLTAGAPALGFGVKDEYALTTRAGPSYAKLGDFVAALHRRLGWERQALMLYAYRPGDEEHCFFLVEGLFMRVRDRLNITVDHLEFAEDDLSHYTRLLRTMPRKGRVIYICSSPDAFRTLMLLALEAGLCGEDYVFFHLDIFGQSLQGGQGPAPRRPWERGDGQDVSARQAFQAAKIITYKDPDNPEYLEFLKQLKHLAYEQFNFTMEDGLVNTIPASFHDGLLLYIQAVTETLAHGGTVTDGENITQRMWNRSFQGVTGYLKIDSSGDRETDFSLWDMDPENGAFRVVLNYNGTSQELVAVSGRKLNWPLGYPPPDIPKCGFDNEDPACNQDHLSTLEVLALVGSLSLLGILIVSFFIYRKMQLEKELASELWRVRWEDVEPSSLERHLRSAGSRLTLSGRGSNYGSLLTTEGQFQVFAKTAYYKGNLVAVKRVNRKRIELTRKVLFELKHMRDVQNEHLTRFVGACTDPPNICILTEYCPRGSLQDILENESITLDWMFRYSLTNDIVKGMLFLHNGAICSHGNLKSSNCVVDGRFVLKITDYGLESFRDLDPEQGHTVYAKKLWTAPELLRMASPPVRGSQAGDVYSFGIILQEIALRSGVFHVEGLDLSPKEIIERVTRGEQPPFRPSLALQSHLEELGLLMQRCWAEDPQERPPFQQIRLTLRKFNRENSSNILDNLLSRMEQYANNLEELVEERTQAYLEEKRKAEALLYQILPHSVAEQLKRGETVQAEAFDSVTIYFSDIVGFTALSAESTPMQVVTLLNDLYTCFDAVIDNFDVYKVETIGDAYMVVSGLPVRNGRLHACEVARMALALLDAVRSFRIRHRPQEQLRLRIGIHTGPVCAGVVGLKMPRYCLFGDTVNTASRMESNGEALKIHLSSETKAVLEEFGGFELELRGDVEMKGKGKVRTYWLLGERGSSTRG
T1 sequence (P01160 124-151 partner limits assumed): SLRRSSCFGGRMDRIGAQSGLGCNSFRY
Procedure: Test compounds were evaluated for potentiation of cGMP in human GC-A overexpressing HEK293 cells (Cardiorenal Research Laboratory, Mayo Clinic). Test compounds at 10 mM DMSO stock concentration were dispensed into 384 well small volume white plates using Tecan D300e digital dispenser starting at 5 μM or 40 μM concentration and diluted 2-fold for 10-point concentration response. Wells were backfilled with DMSO such that the final concentration of DMSO in all wells was maintained at 0.3% DMSO. Atrial natriuretic peptide (ANP, Phoenix Pharmaceuticals) ANP was prepared as working stock aliquots at 5 μM in phosphate-buffered solution (PBS) with 0.1% bovine serum albumin (BSA) and diluted to […] in buffer plus Tween20 at 0.3% and added to plates to a final concentration equivalent to EC20 ANP in the cGMP assay. GC-A cells in suspension ([…]) in OptiMem media (ThermoFisher 11058-021) supplemented with 2% fetal bovine serum were plated at 1×10^6 cells/mL and assay plates were spun at 1000 rpm for 30 sec and incubated at room temperature for 30 min. GC-A-mediated activation of cGMP production was measured using cGMP CisBio detection homogenous time-resolved florescence (HTRF) competition assay using labeled-cGMP in human GC-A-overexpressing HEK293 cells. 5 μL of d-2 acceptor was dispensed into each well followed by addition of 5 μL of Anti-cGMP Eu-Cryptate antibody donor and plates were spun at 1000 rpm for 30 sec and incubated in the dark at room temperature for 1 hr. HTRF florescence was read on the ClarioStar microplate reader (BMG). A 100% response was determined from wells in the absence of compound and presence of saturating concentration of ANP (10 nM), and 0) % response was determined from wells containing an EC20 concentration of ANP determined for each new lot of ANP. Concentration-response curves for test compounds were analyzed by […] analysis using GraphPad software to determine EC50 and Emax values.

[1] = target: T2, extracellular domain human GC-A recombinant protein (Homo sapiens, UniProt P16066); experiment: Surface plasmon resonance binding to GC-A receptor; details: acetate salt; for Kd: SPR 25° C., 1:1 Langmuir model
T2 construct: extracellular domain human GC-A recombinant protein; purchased My BioSource, Inc. San Diego, CA
T2 sequence (P16066 33-473 limits assumed): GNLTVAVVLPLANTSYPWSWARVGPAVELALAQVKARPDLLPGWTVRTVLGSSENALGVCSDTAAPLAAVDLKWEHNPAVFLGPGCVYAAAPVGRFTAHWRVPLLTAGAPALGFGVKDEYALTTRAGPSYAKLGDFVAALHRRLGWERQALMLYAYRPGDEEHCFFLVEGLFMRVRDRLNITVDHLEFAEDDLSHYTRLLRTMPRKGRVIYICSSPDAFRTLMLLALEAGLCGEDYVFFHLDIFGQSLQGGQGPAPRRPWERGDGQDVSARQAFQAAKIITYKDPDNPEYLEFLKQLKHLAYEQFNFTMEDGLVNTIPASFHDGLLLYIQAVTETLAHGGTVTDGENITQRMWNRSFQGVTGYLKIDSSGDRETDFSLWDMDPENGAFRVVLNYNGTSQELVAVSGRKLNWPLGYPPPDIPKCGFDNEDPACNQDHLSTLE
Procedure: Surface plasmon resonance (SPR) measurements were performed at 25° C. on a BI-4500 SPR instrument (Biosensing Instrument Inc. Tempe AZ). As per the instructions by the Biosensing instrument manual, 400 mM nickel sulfate in deionized water was linked to the Ni-NTA sensor chip (Biosensing Instrument Inc. Tempe AZ. Then 30 μg/ml of extracellular domain human GC-A recombinant protein (My BioSource, Inc. San Diego, CA), containing 12 histidine residues on the C-terminus, was then immobilized to the nickel sulfate on the Ni-NTA sensor chip. After, the chip was washed with buffer (150 mM NaCl, 50 μM EDTA pH 7.4, 0).1% DMSO), then 100 μL of sequentially diluted Compound 3 acetate salt (0.125, 0.25, 0.5, 1, 2 μM), Compound 1 acetate salt (6.25, 12.5, 25, 50, 100 nM) or Compound 2 acetate salt (0.125, 0.25, 0.5, 1, 2 μM) was injected at the rate of 60 ul/min and allowed to dissociate for 60 seconds. Data was collected as sensorgrams. Binding kinetics were derived from sensorgrams using BI-Data Analysis Program (Biosensing Instrument, Tempe AZ). Affinity analysis of GC-A with Compound 3, Compound 2 and/or Compound 1 interactions were performed using a 1:1 Langmuir binding model. Two series were performed for all studies.

[2] = system: Primary Human cardiomyocytes; experiment: cGMP levels (ELISA) in human cardiomyocytes; assay type: cell-based; details: acetate salt, 1 or 10 μM, ANP (10^-10 M), vs vehicle
Procedure: Primary Human cardiomyocytes (HCMs: Catalog No. 6200, Lot No. 6288, PromoCell) were maintained and subcultured according to the manufacturer's protocols. Passage 5 was used in the study. Treatment buffer, Compound 3, Compound 1 and Compound 2 acetate salt, ANP, and vehicle were prepared as described above. Briefly, 5×10^5 of cells/well were grown in 6-well plates until 80 to 90% confluency and were then pretreated with vehicle or Compound 3, Compound 1 or Compound 2 at doses of 1 or 10 μM for 5 min at 37° C., then cells were treated with ANP (10^-10 M) for an additional 10 min at 37° C. Afterward, all cells were washed with PBS once and lysed with 0.1 M HCl at room temperature, and intracellular cGMP levels were measured in the lysate using a commercial cGMP ELISA kit (Enzo Life Sciences) with the acetylation method as instructed by the manufacturer.

| SMILES | Emax (human GC-A) | EC50 (human GC-A; HEK293 GC-A cells) | Kd [1] | potency in potentiating ANP-mediated cGMP generation (comparison between forms/enantiomers) (human GC-A; HEK293 GC-A cells) | EMax cGMP activities (human GC-A; HEK293 GC-A cells) | cGMP generation in HCMs in the presence of ANP [2] | binding for the GC-A receptor compared with Compound 3 and Compound 2 acetate salts ([1]; SPR) |
| --- | --- | --- | --- | --- | --- | --- | --- |
| CN(C)CCN1CCCC(C(=O)Nc2nc3c(F)cc(F)cc3s2)C1 (racemic) [Compound 3 TFA salt, N-(4,6-difluorobenzo[d]thiazol-2-yl)-1-(2-(dimethylamino)ethyl) piperidine-3-carboxamide] | 95.8% | 570 nM |  |  |  |  |  |
| CN(C)CCN1CCCC(C(=O)Nc2nc3c(F)cc(F)cc3s2)C1 (racemic) [Compound 3 acetate salt, N-(4,6-difluoro-1,3-benzothiazol-2-yl)-1-[2-(dimethylamino)ethyl]piperidine-3-carboxamide] |  | 320 nM | 176 nM | more potent | 84.0% | dose dependent increase |  |
| CN(C)CCN1CCC[C@H](C(=O)Nc2nc3c(F)cc(F)cc3s2)C1 [Compound 1 TFA salt, (S)-N-(4,6-difluorobenzo[d]thiazol-2-yl)-1-(2-(dimethylamino)ethyl) piperidine-3-carboxamide] |  | 160 nM |  |  | 75.3% |  |  |
| CN(C)CCN1CCC[C@H](C(=O)Nc2nc3c(F)cc(F)cc3s2)C1 [Compound 1 acetate salt, (S)-N-(4,6-difluoro-1,3-benzothiazol-2-yl)-1-[2-(dimethylamino)ethyl]piperidine-3-carboxamide] | 81.5% | 150 nM | 12 nM |  |  |  | greater binding |
| CN(C)CCN1CCC[C@@H](C(=O)Nc2nc3c(F)cc(F)cc3s2)C1 [Compound 2 TFA salt, (R)-N-(4,6-difluorobenzo[d]thiazol-2-yl)-1-(2-(dimethylamino)ethyl) piperidine-3-carboxamide] | 82.7% | 730 nM |  |  |  |  |  |
| CN(C)CCN1CCC[C@@H](C(=O)Nc2nc3c(F)cc(F)cc3s2)C1 [Compound 2 acetate salt, (R)-N-(4,6-difluoro-1,3-benzothiazol-2-yl)-1-[2-(dimethylamino)ethyl]piperidine-3-carboxamide] |  | 1320 nM | 120 nM |  | 73.1% |  |  |
